The values that follow are results of earlier work, collected in patent US5773444A, “Quinazolines as inhibitors of endothelin converting enzyme” (Warner-Lambert Company, priority 1997, dated 1998).

Data set [1] concerns gastric mucosal hemorrhagic change. As to conditions: 50-500 pmol/kg into the left gastric artery; cited from earlier work.
In data set [2] the test system is isolated nonischemic and ischemic rat hearts. The settings on record: cited from earlier work.
Data set [3] concerns behavioral effects. As to conditions: intracerebroventricular, rats; cited from earlier work.

The term IC50 denotes the midpoint of a concentration-inhibition curve. “ET-1: potent vasoconstrictor, is a 21 amino acid bicyclic peptide”: the “tissue type plasminogen activator release, platelet activating formation and gastric mucosal hemorrhagic change” value in data set [1] was “increased the tissue type plasminogen activator release and platelet activating formation and induced gastric mucosal hemorrhagic change in a dose-dependent manner”. The IC50 in data set [2] (isolated rat hearts, read-out: IC50, reduction of coronary flow) is 12 µM. The “time to contracture in globally ischemic rat hearts” value in data set [2] (pretreatment / 10 nMol big ET-1) was “significantly reduced the time to contracture”. Moreover, the behavioral effects entry in data set [3] is given as “evoke behavioral effects”.
